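Exposure lasted 48 hours, with cells grown in 96-well plates and compounds tested at five concentrations. TGI denotes the concentration required for complete inhibition of growth.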
Experiments:
Test in all cases: NCI tumour cell line growth inhibition, 48 h
K-562 leukemia = tested on: K-562 leukemia
M14 melanoma = tested on: M14 melanoma
DMS 114 small cell lung = tested on: DMS 114 small cell lung
NCI-H522 lung = tested on: NCI-H522 lung
A549 NSCLC = tested on: A549 NSCLC
KM12 colon = tested on: KM12 colon
SR leukemia = tested on: SR leukemia
SN12C renal = tested on: SN12C renal
NCI-H460 lung = tested on: NCI-H460 lung
COLO 205 colon = tested on: COLO 205 colon
MOLT-4 leukemia = tested on: MOLT-4 leukemia
CCRF-CEM leukemia = tested on: CCRF-CEM leukemia
OVCAR-8 ovarian = tested on: OVCAR-8 ovarian
SK-MEL-28 melanoma = tested on: SK-MEL-28 melanoma
RXF 393 renal = tested on: RXF 393 renal
HCT-116 colon = tested on: HCT-116 colon
NCI-H23 lung = tested on: NCI-H23 lung
RPMI-8226 leukemia = tested on: RPMI-8226 leukemia
HCT-15 colon = tested on: HCT-15 colon
ACHN renal = tested on: ACHN renal
HOP-92 NSCLC = tested on: HOP-92 NSCLC
XF 498 CNS = tested on: XF 498 CNS
HT29 colon = tested on: HT29 colon
SF-268 CNS = tested on: SF-268 CNS
M19-MEL melanoma = tested on: M19-MEL melanoma
A498 renal = tested on: A498 renal
CAKI-1 renal = tested on: CAKI-1 renal
SK-MEL-2 melanoma = tested on: SK-MEL-2 melanoma
SF-295 CNS = tested on: SF-295 CNS
786-0 renal = tested on: 786-0 renal
SNB-75 CNS = tested on: SNB-75 CNS
SW-620 colon = tested on: SW-620 colon
EKVX NSCLC = tested on: EKVX NSCLC
U251 CNS = tested on: U251 CNS
SNB-19 CNS = tested on: SNB-19 CNS
OVCAR-3 ovarian = tested on: OVCAR-3 ovarian
DLD-1 colon = tested on: DLD-1 colon
SF-539 CNS = tested on: SF-539 CNS
IGROV1 ovarian = tested on: IGROV1 ovarian
HCC-2998 colon = tested on: HCC-2998 colon
UO-31 renal = tested on: UO-31 renal
MALME-3M melanoma = tested on: MALME-3M melanoma
LXFL 529 NSCLC = tested on: LXFL 529 NSCLC
HOP-18 NSCLC = tested on: HOP-18 NSCLC
TK-10 renal = tested on: TK-10 renal
SK-OV-3 ovarian = tested on: SK-OV-3 ovarian
DMS 273 small cell lung = tested on: DMS 273 small cell lung
HL-60(TB) leukemia = tested on: HL-60(TB) leukemia
NCI-H226 lung = tested on: NCI-H226 lung
OVCAR-4 ovarian = tested on: OVCAR-4 ovarian
KM20L2 colon = tested on: KM20L2 colon
SK-MEL-5 melanoma = tested on: SK-MEL-5 melanoma
HOP-62 NSCLC = tested on: HOP-62 NSCLC
LOX IMVI melanoma = tested on: LOX IMVI melanoma
UACC-257 melanoma = tested on: UACC-257 melanoma
OVCAR-5 ovarian = tested on: OVCAR-5 ovarian
SNB-78 CNS = tested on: SNB-78 CNS
UACC-62 melanoma = tested on: UACC-62 melanoma
PC-3 prostate = tested on: PC-3 prostate
MDA-N = tested on: MDA-N
NCI/ADR-RES ovarian = tested on: NCI/ADR-RES ovarian
HS 578T breast = tested on: HS 578T breast
T-47D breast = tested on: T-47D breast
BT-549 breast = tested on: BT-549 breast
MCF7 breast = tested on: MCF7 breast
DU-145 prostate = tested on: DU-145 prostate
MDA-MB-435 = tested on: MDA-MB-435
MDA-MB-231 breast = tested on: MDA-MB-231 breast

## CC[C@@]12N=C(N(C)C)C[C@]1(O)ON=C2C
K-562 leukemia
  TGI: > 100 µM
M14 melanoma
  TGI: > 100 µM
DMS 114 small cell lung
  TGI: > 100 µM
NCI-H522 lung
  TGI: > 100 µM
A549 NSCLC
  TGI: > 100 µM
KM12 colon
  TGI: > 100 µM
SR leukemia
  TGI: > 100 µM
SN12C renal
  TGI: > 100 µM
NCI-H460 lung
  TGI: > 100 µM
COLO 205 colon
  TGI: > 100 µM
MOLT-4 leukemia
  TGI: > 100 µM
CCRF-CEM leukemia
  TGI: > 100 µM
OVCAR-8 ovarian
  TGI: > 100 µM
SK-MEL-28 melanoma
  TGI: > 100 µM
RXF 393 renal
  TGI: > 100 µM
HCT-116 colon
  TGI: > 100 µM
NCI-H23 lung
  TGI: > 100 µM
RPMI-8226 leukemia
  TGI: > 100 µM
HCT-15 colon
  TGI: > 100 µM
ACHN renal
  TGI: > 100 µM
HOP-92 NSCLC
  TGI: > 100 µM
XF 498 CNS
  TGI: > 100 µM
HT29 colon
  TGI: > 100 µM
SF-268 CNS
  TGI: > 100 µM
M19-MEL melanoma
  TGI: > 100 µM
A498 renal
  TGI: > 100 µM
CAKI-1 renal
  TGI: > 100 µM
SK-MEL-2 melanoma
  TGI: > 100 µM
SF-295 CNS
  TGI: > 100 µM
786-0 renal
  TGI: > 100 µM
SNB-75 CNS
  TGI: > 100 µM
SW-620 colon
  TGI: > 100 µM
EKVX NSCLC
  TGI: > 100 µM
U251 CNS
  TGI: > 100 µM
SNB-19 CNS
  TGI: > 100 µM
OVCAR-3 ovarian
  TGI: > 100 µM
DLD-1 colon
  TGI: > 100 µM
SF-539 CNS
  TGI: > 100 µM
IGROV1 ovarian
  TGI: > 100 µM
HCC-2998 colon
  TGI: > 100 µM
UO-31 renal
  TGI: > 100 µM
MALME-3M melanoma
  TGI: > 100 µM
LXFL 529 NSCLC
  TGI: > 100 µM
HOP-18 NSCLC
  TGI: > 100 µM
TK-10 renal
  TGI: > 100 µM
SK-OV-3 ovarian
  TGI: > 100 µM
DMS 273 small cell lung
  TGI: > 100 µM
HL-60(TB) leukemia
  TGI: > 100 µM
NCI-H226 lung
  TGI: > 100 µM
OVCAR-4 ovarian
  TGI: > 100 µM
KM20L2 colon
  TGI: > 100 µM
SK-MEL-5 melanoma
  TGI: > 100 µM

## CC1=C2CCCC2=C/C(=N/Nc2ccc([N+](=O)[O-])cc2[N+](=O)[O-])CC1
K-562 leukemia
  TGI: > 100 µM
M14 melanoma
  TGI: > 100 µM
DMS 114 small cell lung
  TGI: > 100 µM
NCI-H522 lung
  TGI: > 100 µM
A549 NSCLC
  TGI: > 100 µM
KM12 colon
  TGI: > 100 µM
SR leukemia
  TGI: > 100 µM
SN12C renal
  TGI: > 100 µM
NCI-H460 lung
  TGI: > 100 µM
COLO 205 colon
  TGI: > 100 µM
HOP-62 NSCLC
  TGI: > 100 µM
MOLT-4 leukemia
  TGI: > 100 µM
LOX IMVI melanoma
  TGI: > 100 µM
CCRF-CEM leukemia
  TGI: > 100 µM
OVCAR-8 ovarian
  TGI: > 100 µM
SK-MEL-28 melanoma
  TGI: > 100 µM
RXF 393 renal
  TGI: > 100 µM
HCT-116 colon
  TGI: > 100 µM
NCI-H23 lung
  TGI: > 100 µM
UACC-257 melanoma
  TGI: > 100 µM
RPMI-8226 leukemia
  TGI: > 100 µM
OVCAR-5 ovarian
  TGI: > 100 µM
SNB-78 CNS
  TGI: > 100 µM
ACHN renal
  TGI: > 100 µM
HOP-92 NSCLC
  TGI: > 100 µM
XF 498 CNS
  TGI: > 100 µM
HT29 colon
  TGI: > 100 µM
SF-268 CNS
  TGI: > 100 µM
M19-MEL melanoma
  TGI: > 100 µM
CAKI-1 renal
  TGI: > 100 µM
SK-MEL-2 melanoma
  TGI: > 100 µM
SF-295 CNS
  TGI: > 100 µM
786-0 renal
  TGI: > 100 µM
UACC-62 melanoma
  TGI: > 100 µM
SNB-75 CNS
  TGI: > 100 µM
SW-620 colon
  TGI: > 100 µM
EKVX NSCLC
  TGI: > 100 µM
U251 CNS
  TGI: > 100 µM
SNB-19 CNS
  TGI: > 100 µM
OVCAR-3 ovarian
  TGI: > 100 µM
DLD-1 colon
  TGI: > 100 µM
SF-539 CNS
  TGI: > 100 µM
IGROV1 ovarian
  TGI: > 100 µM
UO-31 renal
  TGI: > 100 µM
MALME-3M melanoma
  TGI: > 100 µM
LXFL 529 NSCLC
  TGI: > 100 µM
HOP-18 NSCLC
  TGI: > 100 µM
TK-10 renal
  TGI: > 100 µM
SK-OV-3 ovarian
  TGI: > 100 µM
DMS 273 small cell lung
  TGI: > 100 µM
HL-60(TB) leukemia
  TGI: > 100 µM
NCI-H226 lung
  TGI: > 100 µM
OVCAR-4 ovarian
  TGI: > 100 µM
KM20L2 colon
  TGI: > 100 µM
SK-MEL-5 melanoma
  TGI: > 100 µM

## CC(=O)Nc1ccc(-c2nc3cc(Cl)ccc3o2)cc1
K-562 leukemia
  TGI: > 50 µM
M14 melanoma
  TGI: > 50 µM
PC-3 prostate
  TGI: > 50 µM
NCI-H522 lung
  TGI: > 50 µM
A549 NSCLC
  TGI: > 50 µM
KM12 colon
  TGI: > 50 µM
SR leukemia
  TGI: > 50 µM
SN12C renal
  TGI: > 50 µM
NCI-H460 lung
  TGI: > 50 µM
MDA-N
  TGI: > 50 µM
NCI/ADR-RES ovarian
  TGI: > 50 µM
HS 578T breast
  TGI: > 50 µM
COLO 205 colon
  TGI: > 50 µM
HOP-62 NSCLC
  TGI: > 50 µM
MOLT-4 leukemia
  TGI: > 50 µM
LOX IMVI melanoma
  TGI: > 50 µM
T-47D breast
  TGI: > 50 µM
CCRF-CEM leukemia
  TGI: > 50 µM
OVCAR-8 ovarian
  TGI: > 50 µM
SK-MEL-28 melanoma
  TGI: > 50 µM
RXF 393 renal
  TGI: > 50 µM
HCT-116 colon
  TGI: > 50 µM
NCI-H23 lung
  TGI: > 50 µM
UACC-257 melanoma
  TGI: > 50 µM
BT-549 breast
  TGI: > 50 µM
RPMI-8226 leukemia
  TGI: > 50 µM
HCT-15 colon
  TGI: > 50 µM
OVCAR-5 ovarian
  TGI: > 50 µM
ACHN renal
  TGI: > 50 µM
HOP-92 NSCLC
  TGI: > 50 µM
HT29 colon
  TGI: > 50 µM
MCF7 breast
  TGI: > 50 µM
SF-268 CNS
  TGI: > 50 µM
A498 renal
  TGI: > 50 µM
CAKI-1 renal
  TGI: > 50 µM
SK-MEL-2 melanoma
  TGI: > 50 µM
DU-145 prostate
  TGI: > 50 µM
SF-295 CNS
  TGI: > 50 µM
786-0 renal
  TGI: > 50 µM
UACC-62 melanoma
  TGI: > 50 µM
SNB-75 CNS
  TGI: > 50 µM
SW-620 colon
  TGI: > 50 µM
EKVX NSCLC
  TGI: > 50 µM
U251 CNS
  TGI: > 50 µM
SNB-19 CNS
  TGI: > 50 µM
OVCAR-3 ovarian
  TGI: > 50 µM
SF-539 CNS
  TGI: > 50 µM
IGROV1 ovarian
  TGI: > 50 µM
HCC-2998 colon
  TGI: > 50 µM
UO-31 renal
  TGI: > 50 µM
MALME-3M melanoma
  TGI: > 50 µM
TK-10 renal
  TGI: > 50 µM
SK-OV-3 ovarian
  TGI: > 50 µM
HL-60(TB) leukemia
  TGI: > 50 µM
NCI-H226 lung
  TGI: > 50 µM
OVCAR-4 ovarian
  TGI: > 50 µM
SK-MEL-5 melanoma
  TGI: > 50 µM
MDA-MB-435
  TGI: > 50 µM
MDA-MB-231 breast
  TGI: > 50 µM
